The values that follow come from patent US10842151B2, “Small molecule compound for enhancing plant stress resistance” (SHANGHAI INSTITUTES FOR BIOLOGICAL SCIENCES, CHINESE …, priority 2015, dated 2020).

For assay [1], the target named is T1, PYL2 + HAB1 (Arabidopsis thaliana, UniProt O80992).
T1 construct: made in house; host or cells: E. coli BL21 (DE3)
T1 sequence (O80992 14-188 limits assumed): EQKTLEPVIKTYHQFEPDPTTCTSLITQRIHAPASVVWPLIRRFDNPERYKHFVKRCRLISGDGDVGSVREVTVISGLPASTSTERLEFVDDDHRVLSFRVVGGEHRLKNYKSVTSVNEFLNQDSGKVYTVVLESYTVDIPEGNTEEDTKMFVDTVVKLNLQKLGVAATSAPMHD
T1 sequence (Q9CAJ0 172-511 partner limits assumed): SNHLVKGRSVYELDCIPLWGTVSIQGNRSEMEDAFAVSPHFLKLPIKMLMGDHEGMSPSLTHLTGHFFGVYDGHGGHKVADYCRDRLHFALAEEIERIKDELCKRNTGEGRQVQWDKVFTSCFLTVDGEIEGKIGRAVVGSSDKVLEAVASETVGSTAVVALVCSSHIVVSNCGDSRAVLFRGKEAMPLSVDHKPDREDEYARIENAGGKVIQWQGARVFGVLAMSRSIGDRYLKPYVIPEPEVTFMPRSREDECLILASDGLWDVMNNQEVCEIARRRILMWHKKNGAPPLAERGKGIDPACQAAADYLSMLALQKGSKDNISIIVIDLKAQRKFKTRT
Kind of assay: AlphaScreen experiment, PYL2 + HAB1. It counts as binding. The settings on record: number in brackets; read-out: Half maximum effect concentration EC50 (PYL2 + HAB1). The method, then:
(§1) After incubating for 1.5 hours at room temperature in the dark, it was placed into an Envision Plate Reader (available from Perkin Elmer) under the programmed AlphaScreen procedure for readings.

For assay [2], the target named is T1, PYL2 + HAB1. Put plainly: HAB1 phosphatase activity assay with PYL2, SnRK2.6 phosphorylated polypeptide substrate. The following applies: PYL2 receptor; same concentration as ABA. It counts as biochemical. The procedure: (§2) HAB1 Phosphatase Activity Assay […] The reaction system was incubated at room temperature for 30 minutes, followed by a further reaction for 30 minutes after adding an 11-amono acid phosphorylated polypeptide as a substrate. The phosphorylated polypeptide consisting of amino acid 170-180 of SnRK2.6 protein kinase (sequence […]) was purchased from […] company, wherein phosphorylated […] was a known HAB1 dephosphorylation target site. After 30 minutes, chromogenic reagent (purchased from BioVision) was added and the absorbance at 650 nm was read on a microplate reader (Molecular Devices).

Assay [3] concerns PYR/PYL receptors (PYR1, PYL1, PYL2 and PYL7)-HAB1 complex. Kind of assay: Broad spectrum experiment on PYR/PYL receptors (HAB1 phosphatase activity). It counts as biochemical, Arabidopsis. The settings on record: 1 μM; for binding ability with PYR1/PYL1/PYL2/PYL7 compared with ABA: FIG. 1, FIG. 13. The procedure: as §2
Assay [4] concerns PYR1/PYL1/PYL2/PYL7 + HAB1. Put plainly: AlphaScreen experiment, PYL receptor binding to HAB1. Further details: species or system Arabidopsis. The settings on record: AMX: PYR1/PYL1/PYL2/PYL7; 0720B: PYL2 receptor and PYL1 receptor. The method, then:
as §1

The next assay deals with soybean Williams 82. Kind of assay: Soybean leaf transpiration experiment (thermal imaging). It counts as in vivo. The method, then: After three weeks of continuous watering, 0.05% tween-20 and corresponding concentrations of DMSO (control)/compound (+)-ABA/0918/1127 were sprayed onto the plants in a single administration with an amount of 1.2 ml/pot. Images were taken daily using the FLIR A655sc thermal imaging camera at the same time before and after spraying. The Williams 82 ecotype was used in soybean leaf transpiration experiments for compounds 0604c, 0918 and 1127 and was long-day cultured at 26° C. After the plants grew and had 3 leaves in each of 3 groups, 0.05% tween-20 and 50 μM DMSO (control)/(+)-ABA/0604c/0918/1127 compounds were sprayed in a single administration with an amount of 4 ml/pot. Images were taken daily using the FLIR A655sc thermal imaging camera at the same time before and after spraying.
(§3) Leaf transpiration experiments of soybean and cotton for compound 0720B were carried out at 26° C. with long-day lighting. 16 days and 23 days after sowing, a solution containing 0.1% tween-20 and corresponding concentration of (+)-ABA, or 0720B compound or 0.1% Tween-20 and 0.05% DMSO (control) was sprayed in an amount of 4 ml/pot. Images were taken daily using the FLIR A655sc thermal imaging camera at the same time before and after spraying.

Assay [5] has as its system cotton. Kind of assay: Cotton leaf transpiration experiment (thermal imaging). The settings on record: 50 μM; after two days; vs DMSO. It counts as in vivo. The procedure: as §3
The next assay concerns soybean. Put plainly: Soil drought experiment, soybean. Format: in vivo. The procedure: Only one plant was contained in each pot. All soybean plants were long-day cultured at 26° C. Watering was stopped after the plant had three leaves in each of three groups of leaves and the plants with consistent growth were selected for drought treatment. As for corn, watering was stopped during the small trumpet period for drought treatment. […] After a week, the watering was resumed. Soybeans and cotton used in leaf transpiration experiments for compound 0720B were also used for soil drought experiments. Each pot contained only one plant and was filled with the same weight of soil to reduce experimental errors. All of the soybean plants were grown at 26° C. for long-day culture. 16 days after seeding, watering was stopped and the plants with consistent growth were selected for drought treatment. […] Cotton drought experiments were similar to that of the soybean. 23 days after seeding, the watering was stopped, and the plants with consistent growth were selected for drought treatment. […] After 10 days of drought, the photos were taken.

In assay [6] the test system is cotton. Put plainly: Soil drought experiment, cotton. It counts as in vivo. The settings on record: 50 μM every 4 days; after 10 days of drought. The procedure:
Soybeans and cotton used in leaf transpiration experiments for compound 0720B were also used for soil drought experiments. Each pot contained only one plant and was filled with the same weight of soil to reduce experimental errors. All of the soybean plants were grown at 26° C. for long-day culture. 16 days after seeding, watering was stopped and the plants with consistent growth were selected for drought treatment. […] Cotton drought experiments were similar to that of the soybean. 23 days after seeding, the watering was stopped, and the plants with consistent growth were selected for drought treatment. […] After 10 days of drought, the photos were taken.

For a further assay, the target named is T2, PYL7 + HAB1 (Arabidopsis thaliana, UniProt Q1ECF1).
T2 construct: made in house; host or cells: E. coli BL21 (DE3)
T2 sequence (Q1ECF1 1-211): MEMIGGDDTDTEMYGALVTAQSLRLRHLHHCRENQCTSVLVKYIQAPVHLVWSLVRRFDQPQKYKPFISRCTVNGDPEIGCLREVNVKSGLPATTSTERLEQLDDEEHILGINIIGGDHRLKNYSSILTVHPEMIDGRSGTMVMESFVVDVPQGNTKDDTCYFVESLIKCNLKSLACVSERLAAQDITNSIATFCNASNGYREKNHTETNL
T2 sequence (Q9CAJ0 172-511 partner limits assumed): T1 sequence (Q9CAJ0 172-511 partner limits assumed)
Kind of assay: AlphaScreen experiment, PYL7 + HAB1. Format: binding. The following applies: number in brackets; read-out: Half maximum effect concentration EC50 (PYL7 + HAB1). The method, then: as §1

A further assay deals with T3, PYR1 + HAB1 (Arabidopsis thaliana, UniProt O49686).
T3 sequence (O49686 1-191): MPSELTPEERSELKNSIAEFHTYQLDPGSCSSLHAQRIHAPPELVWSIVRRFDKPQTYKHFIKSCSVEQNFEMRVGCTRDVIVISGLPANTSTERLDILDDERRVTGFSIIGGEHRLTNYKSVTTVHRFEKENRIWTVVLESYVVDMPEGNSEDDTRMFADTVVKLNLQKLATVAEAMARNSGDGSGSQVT
T3 sequence (Q9CAJ0 172-511 partner): T1 sequence (Q9CAJ0 172-511 partner limits assumed)
Put plainly: AlphaScreen experiment, PYR1 + HAB1. It counts as binding. The settings on record: column 2; number in brackets; read-out: Half maximum effect concentration EC50 (PYR1 + HAB1). The method, then: as §1

Assay [7] has as its system soybean GmPYL3 and GmPYL6 + Arabidopsis AtHAB1. Kind of assay: AlphaScreen experiment with soybean GmPYL receptors. It counts as binding. The following applies: FIG. 9. The procedure: as §1
Assay [8] concerns Arabidopsis thaliana Col-0 ecotype seeds. Put plainly: Seed germination, Col-0. Format: in vivo. The settings on record: 1 μM. An excerpt:
(§4) Two lines of plant were sown simultaneously on a single medium of 6 cm diameter, with 15 seeds sown for each line and 4 replicates for each compound. […]

The test system of assay [9] is pyr1;pyl1;pyl4 triple mutant seeds. Kind of assay: Seed germination, PYR/PYL triple mutant. The following applies: 1 μM; six days after seeding. Format: in vivo, Arabidopsis thaliana.
Source text: as §4

For assay [10], the system named is Arabidopsis ABA synthesis defective mutant aba2-1. It counts as in vivo, Arabidopsis thaliana. The settings on record: 5 μM sprayed; after 4 days; vs DMSO.
For assay [11], the system named is Arabidopsis Col-0 ecotype. Put plainly: Soil drought experiment, Arabidopsis. Format: in vivo, Arabidopsis thaliana. The procedure: Seeds of Arabidopsis Col-0 ecotype were sterilized with NaClO and then sown on ½ MS solid medium at 4° C. for 3 days of vernalization. After 6 days of growing, the well-grown seedlings having uniform size were selected and transferred into 8×7×6 cm^3 pots. Each pot was filled with the same weight of soil and the same number of plants (six plants) was planted to reduce experimental error. All the pots were subjected to a short-day culture at 22° C. After two weeks, watering was stopped for drought treatment. […] The position of the flowerpot was changed every day during the process of drought to reduce the error caused by environmental factors. During the whole drought period, the solution was sprayed twice in total and photos were recorded regularly. The watering was resumed in about three weeks.

The test system of another assay is maize (corn). Kind of assay: Soil drought experiment, maize. Format: in vivo. The following applies: 50 μM; a week of drought. The procedure:
Only one plant was contained in each pot. All soybean plants were long-day cultured at 26° C. Watering was stopped after the plant had three leaves in each of three groups of leaves and the plants with consistent growth were selected for drought treatment. As for corn, watering was stopped during the small trumpet period for drought treatment. […] After a week, the watering was resumed.

Assay [12] has as its system ABA-induced environmental stress-related gene expression. Put plainly: Gene expression analysis (fluorescence quantitative PCR). Format: in vivo, Arabidopsis thaliana (Col-0). The following applies: one day after treatment; ABA 10 μM. The method, then:
The whole plant or leaves were taken, and RNA extraction was carried out by using conventional methods. After reverse transcription, the fluorescence quantitative PCR was carried out. Triple biological samples were taken for each treatment which was performed twice. The ACT7 gene was used as a reference gene.

As to `CCCN1C(=O)CC(C)c2cc(NS(=O)(=O)Cc3c(F)c(F)c(C)c(F)c3F)ccc21` (stereo not drawn) [Compound 0720B], the EC50 at PYL2 + HAB1 [1] was determined as 30 nM. The “inhibition of the dephosphorylation effect of HAB1 on SnRK2.6 phosphorylated polypeptide compared with ABA” value on PYL2 + HAB1 [2] is on record as “significantly better than that of ABA at the same concentration”. In assay [3], the “binding ability with PYR1/PYL1/PYL2/PYL7 compared with ABA” value was “significantly higher than that of ABA”. Moreover, the “PYL receptor binding affinity compared with ABA” value in [4] is given as “significantly superior to ABA”. The leaf temperature result was “significantly higher than that of plants in DMSO-sprayed control and that of plants sprayed with 50 μM ABA” in the assay on soybean Williams 82 (one day after spraying, 10 μM, 20 μM or 50 μM); “significantly higher than that of the DMSO-sprayed control” with soybean Williams 82 (two days after spraying, 0720B 20 μM or 50 μM, ABA 50 μM); “significantly higher than that in plants sprayed with DMSO” with cotton [5]. For the same compound, in the assay with soybean (10 μM, 20 μM or 50 μM every 3 days, rewatered 11 days after drought), the growth after rewatering result is “significantly better than that of the plants sprayed with DMSO (control) and the plants sprayed with 50 μM ABA”. Further, the growth result in the assay with cotton [6] was “significantly better than that of the plants sprayed with DMSO (control) and the plants sprayed with 50 μM ABA”.
As for `CCCN1C(=O)CCc2cc(NS(=O)(=O)Cc3ccc(C)c(F)c3F)ccc21` [Compound 0918], the EC50 at PYL2 + HAB1 [1] is 30 nM; on PYL7 + HAB1, 20 nM; at PYR1 + HAB1 it was 20 nM. Also, the “binding to PYR/PYL receptors” value in [3] was “could bind with PYR1/PYL1/PYL2/PYL3/PYL4/PYL5/PYL7/PYL10”. Also, the “binding ability with PYR1/PYL1/PYL2/PYL7 compared with ABA” value in assay [3] is “significantly higher than those of ABA”. In assay [7], the “affinities for soybean GmPYL proteins compared with ABA” value was “significantly higher affinities”. In assay [8], the “inhibition effect on germination of Col-0 ecotype seeds compared with control compound” value is given as “significantly better inhibition effect”. The “germination of Col-0 ecotype seeds” value in [8] (six days after seeding) is listed as “could still inhibit germination of Col-0 ecotype seeds”. In addition, the “germination of pyr1;pyl1;pyl4 triple mutant seeds” value in assay [9] was “could not inhibit germination of PYR/PYL triple mutant pyr1;pyl1;pyl4 seeds”. In assay [10], the leaf temperature entry was “still higher than that in the control group”. Besides, in assay [11] (5 μM sprayed, 18 days after drought), the plant survival result is listed as “still survived”. Also, in assay [11] (same concentration, after 2 weeks of drought, FIG. 8c), the “drought resistance compared with compound with fewer halogen atoms (0604c)” value is reported as “stronger drought resistance”. The growth result in the assay with soybean (50 μM, a week of drought, one month after rewatering) is “grew significantly better than the plants sprayed with DMSO (control) and sprayed with 50 μM ABA”. For the same compound, in the assay with maize (corn), the survival after rewatering entry is “Most of the corn sprayed with compound 0918 survived after rewatering”. For the same compound, the “expression level of relevant genes compared with ABA” value in [12] is reported as “significantly higher than that in the plants treated with 10 μM ABA”.
